Laboratory results published in US20090076029A1 (Palatin Technologies, Inc., priority 2007, published 2009).
Several values for one entry are separate records, joined by “and”; a condition that tells them apart may be missing. Identical values can stand only once. Like-named read-outs stand apart in the source and are kept apart here.

What was measured:
hMC4-R [1] = test system: T1, hMC4-R; assay: cAMP functional assay in HEK-293 cells expressing MC4-R (agonist, neutral antagonist/Schild); format: cell-based, human; conditions: for intrinsic activity at MC4-R: NDP-α-MSH maximal stimulation = 1.0; for functional status at MC4-R: mostly at 1 μM
T1 construct: expressed in transfected cells; host or cells: HEK-293
Experimental: General method for EC50 determination in functional activity assay. Functional evaluation of compounds at melanocortin receptors was performed by measuring the accumulation of intracellular cAMP in HEK-293 cells expressing hMC3-R, hMC4-R or hMC5-R, and in B-16 mouse melanoma cells expressing MC1-R. Cells suspended in Earle's Balanced Salt Solution containing 10 mM HEPES (pH 7.5), 5 mM MgCl2, 1 mM glutamine, 0.1% albumin and 0.6 mM 3-isobutyl-1-methyl-xanthine, a phosphodiesterase inhibitor, were plated in 96 well plates at a density of 0.5×10^5 cells per well. Cells were incubated with the test compounds in the presence or absence of α-MSH for 1 hour at 37° C. cAMP levels in the cell lysates were measured using an EIA kit (Amersham). Data analysis and EC50 values were determined using nonlinear regression analysis with Prism Graph-Pad software.
Functional status. The agonist/antagonist status with respect to MC1-R, MC-3R, MC4-R and MC5-R of certain compounds of the invention was determined.
Assay for agonist. Evaluation of the molecules to elicit a functional response in HEK-293 cells expressing MC4-R was accomplished by measuring the accumulation of intracellular cAMP following treatment. Confluent HEK-293 cells expressing MC4-R were detached by enzyme free cell suspension buffer. Cells were suspended in Earle's Balanced Salt Solution containing 10 mM HEPES (pH 7.5), 1 mM MgCl2, 1 mM glutamine, 0.5% albumin and 0.3 mM 3-isobutyl-1-methyl-xanthine (IBMX), a phosphodiesterase inhibitor. The cells were plated in 96 well plates at a density of 0.5×10^5 cells per well and pre-incubated for 30 minutes. The cells were then challenged with the test compounds dissolved in DMSO at a concentration range of 0.05-5000 nM in a total assay volume of 200 μL for 1 hour at 37° C. The concentration of DMSO was always held at 1% in the assay mixture. NDP-α-MSH was used as the reference agonist. At the end of the incubation period the cells were disrupted by the addition of 50 μL of lysis buffer from a cAMP EIA kit (Amersham). Complete rupture of the cells was obtained by pipetting the cells multiple times. cAMP levels in the cell lysates were measured after appropriate dilution using the EIA kit (Amersham) method. Data analysis and EC50 values were determined by using nonlinear regression analysis with Prism Graph-Pad software. […] FIG. 1 illustrates typical results, showing the stimulation of cAMP using the compound of Example 11 in HEK-293/MC4-R cells with comparison to NDP-α-MSH.
Assay for Neutral Antagonist. Compounds with a high affinity for binding to MC4-R membranes but with less potency in terms of cAMP accumulation (EC50>1000 nM) and low response ratio (<0.1) were analyzed for their ability to antagonize the stimulatory effect of the agonist NDP-α-MSH. These studies were carried out in HEK-293 cells expressing MC4-R. Cells were incubated with the compounds in the presence of the agonist NDP-α-MSH and the extent of antagonism was measured by the decrease in intracellular cAMP concentrations. Screening the compounds for antagonist activity was performed at a single concentration of NDP-α-MSH (1.0 nM) over a compound concentration range of 0.5-5000 nM.
Experimental details were similar to the analysis for agonistic activity described above. Briefly, cells were pre-incubated for 30 minutes with the test compounds at concentrations between 0.5 nM and 5000 nM. The cells were then stimulated with NDP-α-MSH at a concentration of 1 nM for 1 hour. For Schild's analysis, the interactions were studied using at least 3 concentrations of the compounds, separated by a log unit, over a full range of the agonist (0.005-5000 nM). cAMP levels were measured in the cell lysates after appropriate dilution. Nonlinear regression analysis with Prism Graph-Pad software was used for Schild analysis and to obtain EC50 values. pA2 values were derived from the Schild plot of the data.

hMC5-R = target: T2, hMC5-R; assay: Competitive inhibition assay using [I125]-NDP-α-MSH, hMC5-R membranes; format: binding, human; conditions: read-out: Ki (nM) (NDP-α-MSH) MC5-R
T2 construct: expressed in transfected cells; host or cells: HEK-293
Experimental: (§1) Competitive inhibition assay using [1125]-NDP-α-MSH. A competitive inhibition binding assay was conducted using membranes prepared from HEK-293 cells transfected to express hMC3-R, hMC4-R or hMC5-R, and from B-16 mouse melanoma cells (containing MC1-R) using 0.2 to 0.4 nM [I^125]-NDP-α-MSH (New England Nuclear) in 50 mM HEPES buffer containing 1 mM MgCl2, 2 mM CaCl2, and 5 mM KCl, at pH 7.2. In certain experiments, HEK-293 cells transfected to express hMC1-R were also employed. The assay tube also contained a chosen concentration of the test compound of this invention, typically a 1 μM concentration, for determining inhibition of the binding of [^1125]-NDP-α-MSH to its receptor. Non-specific binding was measured by inhibition of binding of [I^125]-NDP-α-MSH in the assay with the presence of 1 μM α-MSH.
(§2) The assay mixture was incubated for 90 minutes at room temperature, then filtered and the membranes washed three times with ice cold buffer. The filter was dried and counted in a gamma counter for remaining radioactivity bound to the membranes. 100% specific binding was defined as the difference in radioactivity (cpm) bound to cell membranes in the absence and presence of 1 μM α-MSH. The cpm obtained in presence of test compounds were normalized with respect to 100% specific binding to determine the percent inhibition of [125]-NDP-α-MSH binding. Each assay was conducted in triplicate and the actual mean values are described, with results less than 0% reported as 0%.

hMC4-R [2] = test system: T1, hMC4-R; format: binding, human; conditions: for Inhibition at 1 μM (AgRP) MC4-R: 1 μM compound
Experimental: Competitive binding assay using [I^125]-AgRP (83-132). Competitive binding studies using [I^125]-AgRP (83-132) were carried out on membranes isolated from cells expressing hMC4-R. The assay was performed in 96 well GF/B Millipore multiscreen filtration plates (MAFB NOB10) pre-coated with 0.5% bovine serum albumin (Fraction V). The assay mixture contained 25 mM HEPES buffer (pH 7.5) with 100 mM NaCl, 2 mM CaCl2, 2 mM MgCl2, 0.3 mM 1,10-phenanthroline, 0.5% bovine serum albumin, cell membranes, radioligand [I^125]-AgRP (83-132) (NEN), and increasing concentrations of compounds in a total volume of 200 μL. Binding was measured at radioligand concentrations of 0.2 nM. After incubating for 1 hour at 37° C., the reaction mixture was filtered and washed with an assay buffer containing 500 mM NaCl. The dried discs were punched out from the plate and counted on a gamma counter. Care was taken to limit the specific binding of the ligand to an amount not exceeding 10% of the counts added to the reaction mixture. Data were analyzed using the Prism Graph-Pad curve fitting software.

hMC4-R [3] = target: T1, hMC4-R; assay: Competitive inhibition assay using [I125]-NDP-α-MSH, hMC4-R membranes; format: binding, human; conditions: for attenuation of binding of α-MSH and AgRP to MC4-R: both ligands (NDP-α-MSH and AgRP), summary
Experimental: as §1, §2

hMC3-R = target: T3, hMC3-R; assay: Competitive inhibition assay using [I125]-NDP-α-MSH, hMC3-R membranes; format: binding, human; conditions: read-out: Ki (nM) (NDP-α-MSH) MC3-R
T3 construct: expressed in transfected cells; host or cells: HEK-293
Experimental: as §1, §2

MC1-R = target: T4, MC1-R; assay: Competitive inhibition assay using [I125]-NDP-α-MSH, MC1-R membranes; format: binding, mouse; conditions: for Inhibition at 1 μM (NDP-α-MSH) MC1-R: 1 μM compound
T4 construct: other: 1 μM compound
Experimental: as §1, §2

[4] = MC4-R, Table 1 in μM, read-out: EC50
[5] = cAMP assay, read-out: EC50 (nM) at MC4-R
[6] = MC4-R membranes, Table 1, read-out: Ki (nM) I125-AgRP
[7] = MC4-R membranes, Table 1, read-out: Ki (nM) I125-NPD-α-MSH

| Compound | functional status (pAg, Ag, Antag, Inactive) (hMC4-R [1]; MC4-R, Table 1) | EC50 (hMC4-R [1]; [4]) | intrinsic activity at MC4-R (hMC4-R [1]) | functional status at MC4-R (hMC4-R [1]; cAMP assay) | EC50 (hMC4-R [1]; [5]) | Ki (hMC5-R) | Inhibition at 1 μM (AgRP) MC4-R (hMC4-R [2]) | Ki (hMC4-R [2]; [6]) | Ki (hMC4-R [2]; read-out: Ki (nM) (AgRP) MC4-R) | Ki (hMC4-R [3]; [7]) | attenuation of binding of α-MSH and AgRP to MC4-R (hMC4-R [3]) | Ki (hMC4-R [3]; read-out: Ki (nM) (NDP-α-MSH) MC4-R) | Ki (hMC3-R) | EC50 (hMC4-R [1]; MC4-R, Table 1, read-out: EC50) | Ki (MC1-R) | Inhibition at 1 μM (NDP-α-MSH) MC1-R (MC1-R) | EC50 (hMC4-R [1]; cAMP assay, printed in μm, read-out: EC50 at MC4-R) |
| --- | --- | --- | --- | --- | --- | --- | --- | --- | --- | --- | --- | --- | --- | --- | --- | --- | --- |
| 2-naphthylacetyl-1-amino-1-cyclohexane-carbonyl-D-Phe(4-Cl)-Arg-Trp-NH2 [Example 25] | pAg (“pAg” means partial agonist) | > 1 µM | 0.2 | partial agonist (intrinsic activity between 0.1 (10%) and 0.7 (70%) is classified as a partial agonist) | > 1 µM | 300 nM | 91% | 50 nM | 50 nM | 40 nM | attenuate the binding of both α-MSH and AgRP to MC4-R | 40 nM | 453 nM | – | – | – | – |
| NCCCC[C@H]1C(=O)N(CCc2ccc3ccccc3c2)CCN1C(=O)[C@@H](Cc1ccc(Cl)cc1Cl)NC(=O)[C@@H]1CC[C@H](c2ccccc2)N1 [Example 19, (2S,5R)-5-Phenyl-pyrrolidine-2-carboxylic acid [(R)-2-[(S)-2-(4-amino-butyl)-4-(2-naphthalen-2-yl-ethyl)-3-oxo-piperazin-1-yl]-1-(2,4-dichloro-benzyl)-2-oxo-ethyl]-amide] | pAg (“pAg” means partial agonist) | – | 0.19 and 0.2 | – | 0.959 µM | – | 95% | 63 nM | 63 nM | – | attenuate the binding of both α-MSH and AgRP to MC4-R | – | 855 nM | 0.959 µM | 1370 nM | 0% | – |
| N=C(N)NCCC[C@H]1C(=O)N2C(CC[C@@H]2COc2ccc3ccccc3c2)N1C(=O)[C@@H](Cc1ccc(Cl)cc1Cl)NC(=O)[C@@H]1CC[C@H](c2ccccc2)N1 (stereo partly drawn) [Example 20, (2S,5R)-5-Phenyl-pyrrolidine-2-carboxylic acid {(R)-1-(2,4-dichloro-benzyl)-2-[(2S,5R)-2-(3-guanidino-propyl)-5-(naphthalen-2-yloxymethyl)-3-oxo-hexahydro-pyrrolo[1,2-a]imidazol-1-yl]-2-oxo-ethyl}-amide] | Inactive | – | – | inactive | – | – | 99% | 23 nM | 23 nM | – | – | – | 312 nM | > 1 µM | 1040 nM | 16% | – |
| NCCCC[C@H]1C(=O)N(CCc2ccc3ccccc3c2)CCN1C(=O)[C@@H](Cc1ccc(Cl)cc1Cl)NC(=O)c1ccc(Oc2ccccc2)cc1 [Example 22, N—[(R)-2-[(S)-2-(4-Amino-butyl)-4-(2-naphthalen-2-yl-ethyl)-3-oxo-piperazin-1-yl]-1-(2,4-dichloro-benzyl)-2-oxo-ethyl]-4-phenoxy-benzamide] | Inactive | – | – | inactive | – | – | 100% | 0.9 nM | 0.9 nM | – | – | – | – | > 1 µM | – | – | – |
| Cc1cc(Cl)ccc1C[C@@H](N)C(=O)N1C[C@@H](C)N(CCc2ccc3ccccc3c2)C[C@@H]1CCCNC(=N)N [Example 27, N-{3-[1-[2(R)-Amino-3-(2-methyl, 4-chloro-phenyl)-propionyl]-5(R)-methyl-4-(2-naphthaen-2-yl-ethy)-piperazin-2(S)-yl]-propyl}-guanidine] | pAg (“pAg” means partial agonist) | – | 0.3 | partial agonist (intrinsic activity between 0.1 (10%) and 0.7 (70%) is classified as a partial agonist) | 0.214 µM | – | – | – | – | 29 nM | – | – | – | 0.214 µM | – | – | – |
| C[C@@H]1CN(C(=O)[C@H](N)Cc2ccc(Cl)cc2)[C@@H](CCCNC(=N)N)CN1CCc1ccc2ccccc2c1 [Example 29, N-{3-[1-[2(R)-Amino-3-(4-CHLORO-phenyl)-propionyl]-5(R)-methyl-4-(2-naphthalen-2-yl-ethyl)-piperazin-2(S)-yl]-propyl}-guanidine] | Ag | – | 0.8 | agonist (intrinsic activity of 0.7 (70%) or higher is classified as an agonist) | 0.252 µM | – | 97% | – | 15 nM | – | attenuate the binding of both α-MSH and AgRP to MC4-R | – | – | 0.252 µM | – | – | – |
| NH2—(CH2)6—C(═O)-Ser(Bzl)-D-Phe(4-Cl)-Arg-Trp-Ala-NH2 [Example 16] | – | > 1 µM | – | functionally inactive | – | – | – | – | – | – | – | – | 35 nM | – | 142 nM | 60% | > 1 µM |
